Values quoted from earlier work in patent US20240358731A1, “SUMO PATHWAY AS AN OXYGEN SENSOR RELEVANT TO THE PATHOPHYSIOLOGY OF PULMONARY ARTERY HYPERTENSION AND CARDIAC ARRHYTHMIA” (Northeastern University, priority 2023, published 2024).
Non-standard residues stand in square brackets, D forms with d. Residues, ends and D or L forms follow the SMILES beside them. ξ: configuration not given here. *: point of attachment. X2 = O=C(CN*)COC(=O)c1c2ccccc2cc2ccccc12; X1 = O=C(Cc1ccc(O)c([N+](=O)[O-])c1)*; Thr(3ξ) = CC(O)[C@H](N)C(=O)O

system: SUMOylation; conditions: cited from earlier work

Question: With `Cc1cc2c(o1)-c1ccccc1C(=O)C2=O` [33-DINOR-dehydrodunnione] as the compound, how does the SUMOylation inhibition read?
Answer: potent SUMOylation inhibitors

Question: For `CC1CC2=C(O1)c1ccccc1C(=O)C2=O` (stereo not shown) [33-DINOR-dunnione], which SUMOylation inhibition is on record?
Answer: potent SUMOylation inhibitors

Question: With `COC(=O)C1=C(C(=O)OC)C2([C@@H](Cc3ccc(C)cc3)Nc3ccccc3)C=CC1O2` (stereo partly shown) [COH000] as the compound, how does the SUMOylation inhibition read?
Answer: more potent SUMOylation inhibitor

Question: Which SUMOylation inhibition does the source give for `COc1ccc(NC(=O)Nc2ccc(Oc3ncnc4cc(Cl)ccc34)nc2)cc1OC1CCCC1` [Compound 10] here?
Answer: potent in vitro SUMOylation inhibitor

Question: Which SUMOylation inhibition does the source give for `O=C(Oc1cc(C(=O)O[C@H]2O[C@@H](OC(=O)c3cc(O)c(O)c(OC(=O)c4cc(O)c(O)c(O)c4)c3)[C@H](OC(=O)c3cc(O)c(O)c(OC(=O)c4cc(O)c(O)c(O)c4)c3)[C@@H](OC(=O)c3cc(O)c(O)c(OC(=O)c4cc(O)c(O)c(O)c4)c3)[C@@H]2OC(=O)c2cc(O)c(O)c(OC(=O)c3cc(O)c(O)c(O)c3)c2)cc(O)c1O)c1cc(O)c(O)c(O)c1` [Davidiin] here?
Answer: one of the most potent natural product SUMOylation inhibitors identified

Question: For `CCc1cc(=O)[nH]c(-n2nc(-c3ccccc3)cc2NC(=O)Nc2ccc(C(C)(C)C)cc2)n1` [Pyrazole urea], which SUMOylation inhibition is on record?
Answer: potent molecules capable of inhibiting SUMOylation in vitro

Question: For `CC1CC2=C(O1)c1cccc(O)c1C(=O)C2=O` (stereo not shown) [nocardione A], which SUMOylation inhibition is on record?
Answer: potent SUMOylation inhibitors

Question: Which SUMOylation inhibition does the source give for `COc1cc(NC(=O)Nc2nc(-c3nc4ccccc4s3)cs2)cc(OC)c1OC` [thiazole urea] here?
Answer: potent molecules capable of inhibiting SUMOylation in vitro

Question: Which SUMOylation inhibition does the source give for `CC1(C)CCC2=C(O1)c1ccccc1C(=O)C2=O` [β-lapachone] here?
Answer: potent SUMOylation inhibitors

biological target: T1, SUMO activating enzyme (SAE) (Homo sapiens, UniProt Q9UBE0+Q9UBT2); conditions: cited from earlier work
T1 sequence (Q9UBE0 1-346): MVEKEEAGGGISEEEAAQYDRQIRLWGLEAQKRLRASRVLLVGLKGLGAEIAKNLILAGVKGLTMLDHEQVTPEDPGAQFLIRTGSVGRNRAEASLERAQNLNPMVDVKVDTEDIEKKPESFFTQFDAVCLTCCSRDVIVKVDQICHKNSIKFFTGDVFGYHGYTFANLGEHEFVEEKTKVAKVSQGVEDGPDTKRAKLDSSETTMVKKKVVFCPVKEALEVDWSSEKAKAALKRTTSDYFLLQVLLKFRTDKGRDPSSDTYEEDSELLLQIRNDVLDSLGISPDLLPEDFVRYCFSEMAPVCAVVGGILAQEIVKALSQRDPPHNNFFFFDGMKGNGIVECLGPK
T1 sequence (Q9UBT2 1-640): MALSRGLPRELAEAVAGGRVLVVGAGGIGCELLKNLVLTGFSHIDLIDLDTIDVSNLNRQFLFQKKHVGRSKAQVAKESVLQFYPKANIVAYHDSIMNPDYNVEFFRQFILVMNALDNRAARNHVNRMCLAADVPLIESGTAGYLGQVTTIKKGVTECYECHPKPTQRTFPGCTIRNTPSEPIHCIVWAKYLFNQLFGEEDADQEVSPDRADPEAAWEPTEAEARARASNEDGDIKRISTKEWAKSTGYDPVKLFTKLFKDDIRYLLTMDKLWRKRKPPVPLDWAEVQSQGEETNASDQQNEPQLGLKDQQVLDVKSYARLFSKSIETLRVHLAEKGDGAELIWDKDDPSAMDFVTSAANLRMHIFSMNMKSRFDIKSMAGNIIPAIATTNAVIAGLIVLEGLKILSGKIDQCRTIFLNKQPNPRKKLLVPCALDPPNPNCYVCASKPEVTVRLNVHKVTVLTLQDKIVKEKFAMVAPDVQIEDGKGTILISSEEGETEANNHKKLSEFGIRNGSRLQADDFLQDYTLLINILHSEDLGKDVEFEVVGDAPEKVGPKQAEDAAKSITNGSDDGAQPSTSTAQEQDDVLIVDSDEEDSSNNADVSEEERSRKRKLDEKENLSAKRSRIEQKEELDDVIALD

Question: With `C=CC[C@@H](Nc1ccccc1)C12C=CC(O1)C(C(=O)OC)=C2C(=O)OC` (stereo partly shown) [CID9549553] as the compound, how does the “SAE / SUMO E1 inhibition” value read?
Answer: covalently targets an allosteric binding pocket of SUMO E1

Question: For `COc1ccc(NC(=O)Nc2ccc(Oc3ncnc4cc(Cl)ccc34)nc2)cc1OC1CCCC1` [Compound 10], which “formation of the E1-SUMO complex” value is on record?
Answer: prevents formation of the E1-SUMO complex

Question: For `CCCCn1c(NS(=O)(=O)c2ccccc2)c(S(=O)(=O)c2ccc(C)cc2)c2nc3ccccc3nc21` [Compound 15], which “SAE / SUMO E1 inhibition” value is on record?
Answer: most potent

Question: Which SUMO-E1 activation does the source give for `COc1ccc(-c2nnc(Nc3nc4c(OC)cccc4s3)o2)cc1` [Compound N106] here?
Answer: capable of increasing SUMOylation through the activation of SUMO-E1

Question: For `O=C(Oc1cc(C(=O)O[C@H]2O[C@@H](OC(=O)c3cc(O)c(O)c(OC(=O)c4cc(O)c(O)c(O)c4)c3)[C@H](OC(=O)c3cc(O)c(O)c(OC(=O)c4cc(O)c(O)c(O)c4)c3)[C@@H](OC(=O)c3cc(O)c(O)c(OC(=O)c4cc(O)c(O)c(O)c4)c3)[C@@H]2OC(=O)c2cc(O)c(O)c(OC(=O)c3cc(O)c(O)c(O)c3)c2)cc(O)c1O)c1cc(O)c(O)c(O)c1` [Davidiin], which “formation of the E1-SUMO complex” value is on record?
Answer: blocks the formation of the E1-SUMO complex

Question: For `NS(=O)(=O)OC[C@H]1C[C@@H](Nc2ncncc2C(=O)c2ccn(Cc3cccc(Br)c3)n2)C[C@@H]1O` [ML-792], which “SAE / SUMO E1 inhibition” value is on record?
Answer: selective SAE inhibitor

system: SENP; conditions: cited from earlier work

Question: For `O=CCN1C(=O)C(NC(=O)c2cccc(NC(=O)OCc3ccccc3)c2)N=C(c2ccccc2)c2ccccc21` (stereo not shown) [Compound 39], which SENP inhibition is on record?
Answer: potent and selective SENP inhibition

Question: For `O=C(COC(=O)c1ccc(NC(=O)c2cccc(OCc3ccccc3)c2)cc1)c1ccc(Cl)cc1` [Compound 43], which SENP inhibition is on record?
Answer: modest improvement in activity

Question: For `CCOc1ccc(-c2nonc2NC(=O)COc2ccc(Cl)c(C)c2)cc1C` [Compound 46], which SENP inhibition is on record?
Answer: potent and selective SENP inhibition

Question: For `Cc1cc(OCC(=O)Nc2nonc2NC(=O)COc2ccc(Cl)c(C)c2)ccc1Cl` [Compound 47], which SENP inhibition is on record?
Answer: potent and selective SENP inhibition

Question: With `O=C(NCc1cccc(CNC(=O)c2sc3cc(F)ccc3c2Cl)c1)c1sc2cc(F)ccc2c1Cl` [Compound 49] as the compound, how does the SENP inhibition read?
Answer: potent and selective SENP inhibition

Question: With `O=C(Nc1cccc(NC(=O)c2ccc(-c3cc(Cl)ccc3Cl)o2)c1)c1ccccc1` [Compound 50] as the compound, how does the SENP inhibition read?
Answer: potent and selective SENP inhibition

Question: For `COc1ccc(-c2cccc(C(=O)NCc3cccc(NC(=O)CCc4ccccc4)c3)c2)cc1` [Compound 51], which SENP inhibition is on record?
Answer: potent and selective SENP inhibition

Question: With `CNC(=O)c1cc(COC(=O)c2ccc3c(c2)c(COc2ccc4[nH]ccc4c2)cn3S(C)(=O)=O)cc(=O)[nH]1` [Compound 52] as the compound, how does the SENP inhibition read?
Answer: potent and selective SENP inhibition

Question: Which SENP inhibition does the source give for `CS(=O)(=O)n1cc(COc2ccc3[nH]ccc3c2)c2cc(C(=O)OCc3cc(C#N)[nH]c(=O)c3)ccc21` [Compound 53] here?
Answer: potent and selective SENP inhibition

Question: For `CNC(=O)c1cc(CNC(=O)c2ccc3c(c2)c(COc2ccc4[nH]ccc4c2)cn3S(C)(=O)=O)cc(=O)[nH]1` [Compound 54], which SENP inhibition is on record?
Answer: potent and selective SENP inhibition

Question: Which SENP inhibition does the source give for `O=C1C(O)=C(c2ccc(O)cc2)C(=O)C(O)=C1c1ccc(O)cc1` [NSC76919] here?
Answer: exhibited inhibitory activity

Question: With `O=C(/C=C/C1C(OC(=O)c2ccc(-c3ccccc3)cc2)CC2OC(=O)CC21)Oc1cccc(Cl)c1` (stereo not shown) [SI2] as the compound, how does the SENP inhibition read?
Answer: potent and selective SENP inhibition

Question: With `Cc1cc(-c2ccc(/N=N/c3c(N)c(S(=O)(=O)O)cc4cc(S(=O)(=O)O)ccc34)c(C)c2)ccc1/N=N/c1c(N)ccc2ccc(S(=O)(=O)O)cc12` [SPI-02] as the compound, how does the “inhibition of SUMO2 maturation” value read?
Answer: more active at inhibiting SUMO2 maturation

Question: Which SENP inhibition does the source give for `CC(O)[C@H](NC(=O)[C@H](CCC(N)=O)NC(=O)Cc1ccc(O)c([N+](=O)[O-])c1)C(=O)NCC(=O)NCC(=O)COC(=O)c1c2ccccc2cc2ccccc12` (stereo partly shown) [VAE-499] here?
Answer: more potent and selective SENP inhibitors

Question: Which SENP inhibition does the source give for `CC(O)[C@H](NC(=O)[C@H](CCC(N)=O)NC(=O)[C@H](CCC(N)=O)NC(=O)Cc1ccc(O)c([N+](=O)[O-])c1)C(=O)NCC(=O)NCC(=O)COC(=O)c1c2ccccc2cc2ccccc12` (stereo partly shown) [VAE-500] (X1-QQ[Thr(3ξ)]G-X2) here?
Answer: more potent and selective SENP inhibitors

Question: With `CC(C)C[C@H](NC(=O)Cc1ccc(O)c([N+](=O)[O-])c1)C(=O)N[C@@H](CCCNC(=N)N)C(=O)NCC(=O)NCC(=O)COC(=O)c1c2ccccc2cc2ccccc12` [VAE-561] as the compound, how does the SENP inhibition read?
Answer: more potent and selective SENP inhibitors
